Measurements: ChEMBL document CHEMBL1201862, “PubChem BioAssay data set” (2004)
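Each compound was tested at five concentrations against cells in 96-well plates for 48 hours. At the GI50, growth is halved.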 Calls of active or inactive are those of the source. No stated cut-off is given here; in the data, active = GI50 up to about 1.1 µM and inactive = higher.

Key:
Experiment in all cases: DTP human tumour cell line panel, 48 h
[1] = test system: HT-29
[2] = test system: HCT-15
[3] = test system: SNB-19
[4] = test system: DU-145
[5] = test system: Malme-3M
[6] = test system: SK-OV-3
[7] = test system: OVCAR-4
[8] = test system: A549
[9] = test system: HOP-92
[10] = test system: BT-549
[11] = test system: SR
[12] = test system: UACC-62
[13] = test system: RPMI-8226
[14] = test system: UO-31
[15] = test system: MCF7
[16] = test system: HCC 2998
[17] = test system: NCI-H460
[18] = test system: SN12C
[19] = test system: 786-0
[20] = test system: NCI-H522

Row | Structure (SMILES) | GI50 [1] | GI50 [2] [µM] | GI50 [3] | GI50 [4] | GI50 [5] | GI50 [6] | GI50 [7] | GI50 [8] | GI50 [9] | GI50 [10] | GI50 [11] | GI50 [12] | GI50 [13] | GI50 [14] | GI50 [15] | GI50 [16] | GI50 [17] | GI50 [18] | GI50 [19] | GI50 [20]
1 | Cc1c(C)c2c(c(N)c1C#N)C(=O)N(Cc1ccc(S(N)(=O)=O)cc1)C2=O | > 100 µM (inactive) | > 72.9 | 5.51 µM (inactive) | 32.1 µM (inactive) | 20.5 µM (inactive) | 4.43 µM (inactive) | > 100 µM (inactive) | > 58.6 µM (inactive) | 13.6 µM (inactive) | 19.4 µM (inactive) | > 100 µM (inactive) | > 100 µM (inactive) | > 100 µM (inactive) | 97.9 µM (inactive) | > 75 µM (inactive) | > 100 µM (inactive) | > 100 µM (inactive) | > 53.8 µM (inactive) | 16.8 µM (inactive) | 
2 | N#CI1OC(C(F)(F)F)(C(F)(F)F)c2ccccc21 | 16.4 µM (inactive) | 15.1 |  | 18.6 µM (inactive) |  | > 100 µM (inactive) | 15.1 µM (inactive) | 62.5 µM (inactive) | 16.3 µM (inactive) | 19.6 µM (inactive) |  | 18.4 µM (inactive) | 29.3 µM (inactive) | 14.6 µM (inactive) | 18.9 µM (inactive) | 20 µM (inactive) | 24.8 µM (inactive) | 23.1 µM (inactive) | 14.2 µM (inactive) | 7.19 µM (inactive)
3 | O=C(/C=C/c1ccccc1)CCC1C(=O)NC(=S)NC1=O |  | > 100 | > 100 µM (inactive) | > 100 µM (inactive) |  | > 100 µM (inactive) |  | > 100 µM (inactive) | > 100 µM (inactive) | > 100 µM (inactive) |  | > 100 µM (inactive) |  | > 100 µM (inactive) |  | > 100 µM (inactive) | > 100 µM (inactive) | > 100 µM (inactive) | > 100 µM (inactive) | 
4 | O=C1c2[nH]c3ccccc3c2CCN2CCCCC12 (centres undefined) | 34.1 µM (inactive) | 31.9 | 24.9 µM (inactive) | 36.4 µM (inactive) | 25.6 µM (inactive) | 31.1 µM (inactive) | 27.5 µM (inactive) | 24.9 µM (inactive) | 18.5 µM (inactive) | 27.6 µM (inactive) |  | 18.8 µM (inactive) | 17.7 µM (inactive) |  | 32.1 µM (inactive) | 17.2 µM (inactive) | 26.6 µM (inactive) | 35.6 µM (inactive) | 24 µM (inactive) | 20.3 µM (inactive)
5 | CC(=O)Oc1cc(Cl)c(C)c2c1[C@H]1CC[C@]3(C)[C@@H](OC(C)=O)CC[C@H]3[C@@H]1CC2 | 61.4 µM (inactive) | 50.4 | > 100 µM (inactive) | > 100 µM (inactive) | > 100 µM (inactive) |  |  | > 100 µM (inactive) | > 100 µM (inactive) | > 100 µM (inactive) |  | 35 µM (inactive) | 29.5 µM (inactive) | > 100 µM (inactive) | 83.4 µM (inactive) | > 100 µM (inactive) | > 100 µM (inactive) | > 100 µM (inactive) | > 100 µM (inactive) | > 100 µM (inactive)
6 | c1ccc2c[n+](CCCC[n+]3ccc4ccccc4c3)ccc2c1 | > 100 µM (inactive) | > 100 | 21.8 µM (inactive) | > 100 µM (inactive) |  | > 100 µM (inactive) | > 100 µM (inactive) | 1.13 µM (inactive) |  | > 100 µM (inactive) | > 100 µM (inactive) | > 100 µM (inactive) | > 100 µM (inactive) |  | > 100 µM (inactive) | > 100 µM (inactive) | > 100 µM (inactive) | > 100 µM (inactive) | > 100 µM (inactive) | 
7 | COc1c(O)cc2ccnc3c2c1N(C)C=C3 |  | > 100 | > 100 µM (inactive) | > 100 µM (inactive) |  | > 100 µM (inactive) | > 100 µM (inactive) | > 100 µM (inactive) |  | > 100 µM (inactive) | 10.1 µM (inactive) | > 100 µM (inactive) | > 100 µM (inactive) | 39.4 µM (inactive) | > 100 µM (inactive) | > 100 µM (inactive) | 64.6 µM (inactive) | 67.6 µM (inactive) | 83.8 µM (inactive) | 
8 | CC(C)N(C(C)C)S(=O)(=O)CC12CCC(C/C1=N\O)C2 (centres undefined) | > 100 µM (inactive) | > 100 | > 100 µM (inactive) | > 100 µM (inactive) | > 100 µM (inactive) | > 100 µM (inactive) | > 100 µM (inactive) | > 100 µM (inactive) |  | > 100 µM (inactive) | > 100 µM (inactive) | > 100 µM (inactive) |  | > 100 µM (inactive) | > 100 µM (inactive) | > 100 µM (inactive) | > 100 µM (inactive) | > 100 µM (inactive) | > 100 µM (inactive) | > 100 µM (inactive)
